Key:
[1] = test system: H1975 lung cancer cells; assay: MTT assay, growth of H1975 lung cancer cells; format: cell-based; conditions: Homo sapiens, NCI-H1975; H1975 lung cancer cell line; MTT; Table 3; read-out: IC50 H1975
[2] = test system: MDA-MB231 breast cancer cells; assay: MTT assay, growth of MDA-MB231 breast cancer cells; format: cell-based; conditions: Homo sapiens, MDA-MB-231, MDA-MB231 triple-negative breast cancer cell line, Table 3
Procedure: The inhibitory effect of the exemplary compounds against MDA-MB231 breast cancer cell and H1975 lung cancer cell was evaluated. The cytotoxic activity of test compounds was examined by performing a MTT assay.

Work on `CCOc1ccc(-c2nc(C(N)=O)c3[nH]c(=O)n(-c4ccc([N+](=O)[O-])cc4)c3n2)cc1` [Compound 5k, 2-(4-Ethoxyphenyl)-9-(4-nitrophenyl)-8-oxopurine-6-carboxamide] yielded an IC50 [1] of 7 µM, an IC50 [2] of 26 µM and a melting point of 307.6 to 309 °C.

`CCOc1ccc(-c2nc(C#N)c3[nH]c(=O)n(-c4ccc(C(=O)OC)cc4)c3n2)cc1` [Compound 12b, 2-(4-Ethoxyphenyl)-9-(4-methoxycarbonylphenyl)-8-oxopurine-6-carbonitrile] gave an IC50 [1] of 9.8 µM, an IC50 [2] of 3.9 µM and a melting point of 311.1 to 312.2 °C.

`CCOc1ccc(-c2nc(C#N)c3[nH]c(=O)n(-c4ccc([N+](=O)[O-])cc4)c3n2)cc1` [Compound 12d, 2-(4-Ethoxyphenyl)-9-(4-nitrophenyl)-8-oxopurine-6-carbonitrile] gave an IC50 [1] of 6.2 µM, an IC50 [2] of 2.6 µM and a melting point of 293.2 to 294.8 °C.

In the case of `CCOc1ccc(-c2nc(C#N)c3[nH]c(=O)n(-c4cccc([N+](=O)[O-])c4)c3n2)cc1` [Compound 12e, 2-(4-Ethoxyphenyl)-9-(3-nitrophenyl)-8-oxopurine-6-carbonitrile], the IC50 [1] is reported as 4.1 µM, the IC50 [2] is reported as 3.5 µM and the melting point is reported as 296.1 to 297.8 °C.

`CCCCNC(=N)c1nc(-c2ccc(OCC)cc2)nc2c1[nH]c(=O)n2-c1ccccc1OC` [Compound 13a, 2-(4-Ethoxyphenyl)-9-(2-methoxyphenyl)-8-oxopurine-6-(N-butyl)carboximidamide] showed an IC50 [1] of 79 µM, an IC50 [2] of 11.6 µM and a melting point of 375 to 377 °C.

Work on `CCOc1ccc(-c2nc(C#N)c3nc(OC(=O)OC(C)(C)C)n(-c4ccccc4OC)c3n2)cc1` [Compound 17b, Tert-butyl 6-cyano-2-(4-ethoxyphenyl)-9-(2-methoxyphenyl)purin-8-yl carbonate] yielded an IC50 [1] of 13 µM, an IC50 [2] of 22 µM and a melting point of 278 to 280 °C.

`CCOc1ccc(-c2nc(C#N)c3nc(OC(=O)OCc4ccccc4)n(-c4ccccc4OC)c3n2)cc1` [Compound 17c, Benzyl 6-cyano-2-(4-ethoxyphenyl)-9-(2-methoxyphenyl)purin-8-yl carbonate] showed an IC50 [1] of 34 µM, an IC50 [2] of 48.6 µM and a melting point of 228 to 230 °C.

In the case of `CCOc1ccc(-c2nc(C#N)c3nc(OC(=O)Oc4ccccc4)n(-c4ccccc4OC)c3n2)cc1` [Compound 17d, 6-Cyano-2-(4-ethoxyphenyl)-9-(2-methoxyphenyl)purin-8-yl phenyl carbonate], the IC50 [1] is reported as 25.1 ± 0.4 µM, the IC50 [2] is reported as 16.9 ± 11.5 µM and the melting point is reported as 247 to 249 °C.

For `CCOc1ccc(-c2nc(C(=O)NOC)c3[nH]c(=O)n(-c4ccccc4OC)c3n2)cc1` [Compound 19b, 2-(4-Ethoxyphenyl)-9-(2-methoxyphenyl)-8-oxopurine-6-(N-methoxy)carb oxamide], the IC50 [1] was 0.3 µM, the IC50 [2] was 2.8 µM and the melting point was 260.5 to 261.6 °C.

Compound `CCOc1ccc(-c2nc(C(=O)NN)c3[nH]c(=O)n(-c4ccccc4OC)c3n2)cc1` [Compound 20a, 2-(4-Ethoxyphenyl)-9-(2-methoxyphenyl)-8-oxopurine-6-carbohydrazide] has an IC50 [1] of 60.9 µM, an IC50 [2] of 65.3 µM and a melting point of 273.7 to 274.5 °C.

`CCOc1ccc(-c2nc(C(=O)NN(C)C)c3[nH]c(=O)n(-c4ccccc4OC)c3n2)cc1` [Compound 20b, 2-(4-Ethoxyphenyl)-9-(2-methoxyphenyl)-8-oxopurine-6-(N′,N′-dimethyl)carbohydrazide] gave an IC50 [1] of 6.9 µM, an IC50 [2] of 47.2 µM and a melting point of 279.6 to 281 °C.

With `CCOc1ccc(-c2nc(C(=N)NO)c3c(n2)n(-c2ccccc2OC)c(=O)n3C)cc1` [Compound 21a, 2-(4-Ethoxyphenyl)-9-(2-methoxyphenyl)-7-methyl-8-oxopurine-6-(N-hydroxy)carboximidamide] the IC50 [1] was 30 µM, the IC50 [2] was 87 µM and the melting point was 229 to 231 °C.

Work on `CCOc1ccc(-c2nc(C(=N)NOC)c3c(n2)n(-c2ccccc2OC)c(=O)n3C)cc1` [Compound 21b, 2-(4-Ethoxyphenyl)-9-(2-methoxyphenyl)-7-methyl-8-oxopurine-6-(N-methoxy)carboximidamide] yielded an IC50 [1] of 42 µM and an IC50 [2] of 56 µM.

With `CCOc1ccc(-c2nc(C(=N)NOC(=O)OCc3ccccc3)c3[nH]c(=O)n(-c4ccccc4OC)c3n2)cc1` [Compound 22a, 2-(4-Ethoxyphenyl)-9-(2-methoxyphenyl)-8-oxopurine-6-[N-(benzyloxycarbonyl)oxy]carboximidamide] the IC50 [1] was 3.1 µM, the IC50 [2] was 3.9 µM and the melting point was 246 to 248 °C.

Work on `CCOc1ccc(-c2nc(C(=N)NOC(=O)Oc3ccccc3)c3[nH]c(=O)n(-c4ccccc4OC)c3n2)cc1` [Compound 22b, 2-(4-Ethoxyphenyl)-9-(2-methoxyphenyl)-8-oxopurine-6-[N-(phenoxycarbonyl)oxy]carboximidamide] yielded an IC50 [1] of 3.1 µM, an IC50 [2] of 3.9 µM and a melting point of 209 to 211 °C.

For `C=CCn1c(=O)n(-c2ccccc2OC)c2nc(-c3ccc(OCC)cc3)nc(C(=N)NOC(=O)Oc3ccccc3)c21` [Compound 23a, 7-Allyl-2-(4-ethoxyphenyl)-9-(2-methoxyphenyl)-8-oxopurine-6-[N-(phenoxycarbonyl)oxy]carboximidamide], the IC50 [1] was 51.1 µM, the IC50 [2] was 48.1 µM and the melting point was 83 to 85 °C.

With `CCOc1ccc(-c2nc(-c3noc(C)n3)c3[nH]c(=O)n(-c4ccccc4OC)c3n2)cc1` [Compound 24a, 2-(4-Ethoxyphenyl)-9-(2-methoxyphenyl)-6-(5-methyl-1,2,4-oxadiazol-3-yl)purin-8-one] the IC50 [1] was 17 µM, the IC50 [2] was 64 µM and the melting point was 291 to 293 °C.

In the case of `CCOc1ccc(-c2nc(C(=O)O)c3nc(S)n(-c4ccccc4)c3n2)cc1` [Compound 29a, 2-(4-Ethoxyphenyl)-8-mercapto-9-phenylpurine-6-carboxylic acid], the IC50 [1] is reported as 43.6 µM, the IC50 [2] is reported as 91 µM and the melting point is reported as 320 °C (dec.).

`CCOc1ccc(-c2nc(C#N)c3nc(Cl)n(-c4ccccc4OC)c3n2)cc1` [Compound 31a, 8-Chloro-2-(4-ethoxyphenyl)-9-(2-methoxyphenyl)purine-6-carbonitrile] gave an IC50 [1] of 0.7 µM, an IC50 [2] of 1.6 µM and a melting point of 215 to 217 °C.

With `CCOc1ccc(-c2nc(C#N)c3nc(N(C(C)=O)C(C)=O)n(-c4ccccc4OC)c3n2)cc1` [Compound 35a, N-Acetyl-N-[6-cyano-2-(4-ethoxyphenyl)-9-(2-methoxyphenyl)purin-8-yl]acetamide] the IC50 [1] was 14.7 µM, the IC50 [2] was 11.9 µM and the melting point was 210 to 212 °C.

`CCOc1ccc(-c2nc(C(=N)NO)c3nc(N)n(-c4ccccc4OC)c3n2)cc1` [Compound 36a, 8-Amino-2-(4-ethoxyphenyl)-9-(2-methoxyphenyl)purine-6-(N-hydroxy)carboximidamide] showed an IC50 [1] of 11.9 µM, an IC50 [2] of 15.4 µM and a melting point of 245 to 247 °C.
